# Measurements: patent publication US20260284143A1, “METHOD OF USING BIOACTIVE PEPTIDE FRACTION ISOLATED FROM CANARY SEED” (Purdue Research Foundation, priority 2023, published 2026)
# Assays:
# [1] = biological target: T1, pancreatic lipase type-VI (Sus scrofa, UniProt P00591); assay: Pancreatic lipase inhibition and jump dilution (residence time); assay type: biochemical
# T1 sequence (P00591 1-450): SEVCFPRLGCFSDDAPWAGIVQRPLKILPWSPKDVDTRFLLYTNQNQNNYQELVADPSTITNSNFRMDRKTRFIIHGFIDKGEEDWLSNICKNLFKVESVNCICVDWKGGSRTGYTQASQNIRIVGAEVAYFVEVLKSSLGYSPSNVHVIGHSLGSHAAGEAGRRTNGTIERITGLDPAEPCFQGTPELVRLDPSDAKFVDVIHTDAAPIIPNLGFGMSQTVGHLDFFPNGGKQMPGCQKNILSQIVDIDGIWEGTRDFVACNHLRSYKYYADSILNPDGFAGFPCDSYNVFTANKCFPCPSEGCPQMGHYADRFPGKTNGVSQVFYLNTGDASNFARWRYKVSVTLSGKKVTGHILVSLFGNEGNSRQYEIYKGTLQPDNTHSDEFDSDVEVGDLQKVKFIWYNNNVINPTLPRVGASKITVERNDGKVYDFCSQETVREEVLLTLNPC
# Protocol: Pancreatic lipase inhibition was measured according to the procedures described in our previous study. Briefly, samples, substrate, and pancreatic lipase were dis-solved in McIlvaine buffer (0.1 M Citrate-Na2HPO4, pH 7.4). Then, 50 μL of substrate 4-methylumbelliferyl oleate (1 mM) was pre-incubated with 25 μL of peptide sample for 10 min in a black 96-well microplate. Then, 25 μL of pancreatic lipase type-VI (200 U/mL) were pipetted, and the reaction was carried out for one hour. The production of 4-methylumbelliferone was measured fluorometrically using a Fluoroskan Ascent FL Microplate Fluorometer and Luminometer, ThermoFisher Scientific (Waltham, MA, USA) using an excitation wavelength of 355 nm and emission wavelength of 460 nm. The positive control (no inhibitor) used the buffer instead of the sample, and buffer was used instead of pancreatic lipase solution for negative control (no pancreatic lipase activity). Finally, a jump dilution experiment was carried out, as previously reported by Kumar and Lowery. Briefly, enzyme-inhibitor complexes were formed by pre-incubating the substrate, pancreatic lipase (6000 U/mL), and inhibitors (10×IC50) for three hours. […] Finally, the residence time was calculated by measuring tau determined as the reciprocal of koff after fitting the enzyme progress curves to Equation (1).
# C57BL/6J mice [2] = assay: Serum biochemical analysis (TG, HDL, LDL/VLDL, total cholesterol); assay type: in vivo; details: orlistat 40 mg/kg/day, 8 weeks, fasting serum
# Protocol: Total serum high-density lipoprotein (HDL), low-density lipoprotein (LDL)/very low-density lipoprotein (VLDL), and total cholesterol levels were quantified with HDL, and LDL/VLDL Colorimetric/Fluorometric assay Kit (LSK314100) obtained from Lifespan Bioscience (Seattle, […], USA). The assays were carried out following the manufacturer's instructions, and the absorbance was measured using Multiskan™ FC Microplate Photometer (Waltham, MA, USA). In addition, serum triglyceride (TG) levels were measured using a triglyceride colorimetric kit (LSK302200) purchased from Lifespan Bioscience (Seattle, DC, USA).
# C57BL/6J mice [3] = assay: Fasting serum levels of metabolic hormones (ELISA); assay type: in vivo; details: orlistat 40 mg/kg/day, 8 weeks
# Protocol: Mouse serum was analyzed to quantify total serum ghrelin using a mouse enzyme-linked immunosorbent assay (ELISA) ghrelin kit (EIAM-GHR-1) obtained from Raybiotech (Norcross, GA, USA), serum leptin by mouse leptin Duoset ELISA kit (DY49805) obtained from R&D Systems (Minneapolis, MN, USA), serum adiponectin and insulin by commercial mouse ELISA kits (KMP0041 and EMINS) obtained from Thermo Fisher Scientific (Waltham, MA, USA). All assays were carried out following the manufacturer's instructions. Finally, the absorbances were quantified at 450 nm and turbidity corrections at 590 nm using Multiskan™ FC Microplate Photometer (Waltham, MA, USA).
# C57BL/6J mice [4] = assay: Organ and epididymal fat weight; assay type: in vivo; details: orlistat 40 mg/kg/day, 8 weeks, Western diet
# Protocol: The total body weight gain (g/animal), daily feed intake (g/animal/day), and water consumption was monitored weekly throughout the study. The fecal collection was done per cage, separating fecal matter from bedding on a weekly basis and then stored at −80±3° C. until analysis. After the eight weeks of the study, animals were sacrificed by CO2 asphyxiation. Immediately after, blood was collected by cardiac puncture.
# pancreatic lipase = details: peptides identified from fractionated canary seed proteins; cited from earlier work
compound,measurement,setting,value
CCCCCCCCCCC[C@@H](C[C@@H]1OC(=O)[C@H]1CCCCCC)OC(=O)[C@H](CC(C)C)NC=O [orlistat],reversibility of pancreatic lipase inhibition,[1]; 30-fold jump dilution,slow reversibility
same,inhibition of pancreatic lipase (PL) in pre-formed complexes,"[1]; inhibitor 10×IC50, monitored for three hours",Complete inhibition
same,serum TG concentration vs WD,C57BL/6J mice [2],effective in lowering
same,serum total cholesterol vs WD,C57BL/6J mice [2],no difference
same,serum ghrelin concentration,C57BL/6J mice [3],increased
same,Kidney weight,C57BL/6J mice [4],402.08 ± 7.43 a mg
LSPR,inhibitory activity towards pancreatic lipase,pancreatic lipase,high inhibitory activity
VPPR,inhibitory activity towards pancreatic lipase,pancreatic lipase,high inhibitory activity
LADR,inhibitory activity towards pancreatic lipase,pancreatic lipase,high inhibitory activity
TVGPR,inhibitory activity towards pancreatic lipase,pancreatic lipase,high inhibitory activity
